Measurements published in publication PMC5772633 (Scientific Reports, 2018).
“And” between values parts separate entries of the source, which are not always exact repeats. Identical values can stand only once.

Tests used:
[1] = molecular target: T1, human D3 receptor mutant V189I (Homo sapiens, UniProt P35462, V189I); experiment: Radioligand binding assay, D3R mutant V189I; settings: two replicas
T1 construct: Flag tag (N); His tag (C); expressed in transfected cells; host or cells: SF9 insect cells (membranes)
Description: (§1) The D3R mutations were located in the OBS or the vicinity of the OBS and were performed on nine different residues (Fig. 1).
(§2) Point mutants were made by site-directed mutagenesis using 0.5 μl Takara’s PrimeStar Hot start polymerase with 20ng D3R wild type template plasmid DNA, 5 × PrimeStar buffer, 4 μl dNTP mix (2.5 mM each dNTP), plus 0.5 μg forward and reverse primers. 18 cycles were performed at 98 °C for 30 seconds, 55 °C for 30 seconds and 72 °C for 6.5 minutes. The template was degraded with DpnI for 1 hr and transformed into DH5α competent cells.
(§3) Mutants were expressed in SF9 insect cells for 48 hrs with an approximate MOI of 5. A list of mutagenesis primers used can be found in Table S3.
(§4) Binding assays were performed on membranes prepared from transiently transfected human D3 receptor mutants in SF9 insect cells. Frozen cell paste was homogenized by Polytron in 50 mM Tris HCl buffer (pH 7.4 at 4 degrees C) containing 2.0 mM MgCl2. […] 7-OH-DPAT levels were determined by liquid scintillation counting of the filterplates in Ecolume scintillation fluid. […] Ki values were calculated according to the Cheng- Prusoff equation, Ki = IC50/(1 + (L/Kd)), where L is the concentration of the radioligand used in the experiment and the Kd value is the dissociation constant for the radioligand at the mutant receptor (determined previously by saturation analysis).

D2R = tested on: D2R; parameters: method as in PMID 27715007; settings: cited from earlier work
wt-D3R = molecular target: T2, wt-D3R (Homo sapiens, UniProt P35462); experiment: Radioligand ([3H]7-OH-DPAT) binding assay, wild type D3R membranes from SF9 cells
T2 construct: Flag tag (N); His tag (C); expressed in transfected cells; host or cells: SF9 insect cells (membranes), pFastbac/baculovirus

[2] = molecular target: human D3 receptor triple mutant Y36L, S182I, V350I (Homo sapiens, UniProt P35462, S182I/V350I/Y36L); experiment: Radioligand binding assay, D3R triple mutant; settings: two replicas
Description: as §1, §2, §3, §4

[3] = molecular target: T3, human D3 receptor mutant E90Q (Homo sapiens, UniProt P35462, E90Q); experiment: Radioligand binding assay, D3R mutant E90Q; settings: two replicas
T3 construct: Flag tag (N); His tag (C); expressed in transfected cells; host or cells: SF9 insect cells (membranes)
Description: as §1, §2, §3, §4

[4] = molecular target: T4, human D3 receptor mutant V189A (Homo sapiens, UniProt P35462, V189A); experiment: Radioligand binding assay, D3R mutant V189A
T4 construct: Flag tag (N); His tag (C); expressed in transfected cells; host or cells: SF9 insect cells (membranes)
Description: as §1, §2, §3, §4

[5] = molecular target: T5, human D3 receptor mutant Y36L (Homo sapiens, UniProt P35462, Y36L); experiment: Radioligand binding assay, D3R mutant Y36L; settings: two replicas
T5 construct: Flag tag (N); His tag (C); expressed in transfected cells; host or cells: SF9 insect cells (membranes)
Description: as §1, §2, §3, §4

[6] = parameters: method as in PMID 27715007; settings: in vivo; cited from earlier work
[7] = molecular target: T6, human D3 receptor mutant I183F (Homo sapiens, UniProt P35462, I183F); experiment: Radioligand binding assay, D3R mutant I183F
T6 construct: Flag tag (N); His tag (C); expressed in transfected cells; host or cells: SF9 insect cells (membranes)
Description: as §1, §2, §3, §4

[8] = molecular target: T7, human D3 receptor mutant Y36F (Homo sapiens, UniProt P35462, Y36F); experiment: Radioligand binding assay, D3R mutant Y36F; settings: two replicas
T7 construct: Flag tag (N); His tag (C); expressed in transfected cells; host or cells: SF9 insect cells (membranes)
Description: as §1, §2, §3, §4

[9] = molecular target: T8, human D3 receptor mutant C114L (Homo sapiens, UniProt P35462, C114L); experiment: Radioligand binding assay, D3R mutant C114L; settings: two replicas
T8 construct: Flag tag (N); His tag (C); expressed in transfected cells; host or cells: SF9 insect cells (membranes)
Description: as §1, §2, §3, §4

[10] = molecular target: T9, human D3 receptor mutant E90L (Homo sapiens, UniProt P35462, E90L); experiment: Radioligand binding assay, D3R mutant E90L; settings: two replicas
T9 construct: Flag tag (N); His tag (C); expressed in transfected cells; host or cells: SF9 insect cells (membranes)
Description: as §1, §2, §3
Binding assays were performed on membranes prepared from transiently transfected human D3 receptor mutants in SF9 insect cells. Frozen cell paste was homogenized by Polytron in 50 mM Tris HCl buffer (pH 7.4 at 4 degrees C) containing 2.0 mM MgCl2. The cell membranes were spun in a high-speed centrifuge at 40,000 × g for ten minutes. The final pellet was re-suspended in assay buffer (50 mM Tris buffer, 120 mM NaCl, 5 mM MgCl2, 5 mM KCl, 2 mM CaCl2, pH 7.4 at 37 °C). […] 7-OH-DPAT levels were determined by liquid scintillation counting of the filterplates in Ecolume scintillation fluid.

[11] = molecular target: human D3 receptor mutant Y373F (Homo sapiens, UniProt P35462, Y373F); experiment: Radioligand binding assay, D3R mutant Y373F; settings: two replicas
Description: as §1, §2, §3, §4

[12] = molecular target: T10, human D3 receptor mutant Y365L (Homo sapiens, UniProt P35462); experiment: Radioligand binding assay, D3R mutant Y365L; settings: two replicas
T10 construct: Flag tag (N); His tag (C); expressed in transfected cells; host or cells: SF9 insect cells (membranes)
Description: as §1, §2, §3, §4

[13] = molecular target: T11, human D3 receptor mutant S182I (Homo sapiens, UniProt P35462, S182I); experiment: Radioligand binding assay, D3R mutant S182I; settings: two replicas
T11 construct: Flag tag (N); His tag (C); expressed in transfected cells; host or cells: SF9 insect cells (membranes)
Description: as §1, §2, §3, §4

D3R = settings: Table 1; cited from earlier work

For `CCN1CCO[C@@H](c2ccc(NS(=O)(=O)c3ccc(C(C)C)cc3)c(C)c2)C1` [Compound 1, PF-4363467], the Ki [1] is given as 8.2 nM and 6.5 nM, the D2R receptor occupancy (D2R) is given as 86% and the Ki (wt-D3R; wild type D3R, Table 1) is given as 3.4 ± 0.4 nM. For the same molecule, the “ΔGexp (experimental binding free energy)” value (wt-D3R; wt D3R) was -11.6 kcal/mol, the Ki [2] was 29.5 nM and 22 nM and the Ki [3] was 6 nM and 5.4 nM. The Ki ([4]; D3R mutant V189A, two replicas) was 24 nM and 30 nM, the “decrease in affinity (fold-shift Ki mutant/Ki wt)” value ([4]; V189A mutant vs wt D3R) was 8 fold and the Ki [5] was 22 nM and 13 nM. For the same molecule, the “locomotor or catalepsy side effects” value [6] was “lack of locomotor or catalepsy side effects”, the Ki ([7]; D3R mutant I183F, two replicas) was 55 nM and 43 nM and the “decrease in affinity (fold-shift Ki mutant/Ki wt)” value ([7]; I183F mutant vs wt D3R) was 14 fold. The Ki [8] was 3.2 nM and 2.5 nM, the Ki [9] was 1.6 nM and 1.3 nM and the Ki [10] was 4.9 nM and 3.7 nM. For the same molecule, the Ki [11] was 14.8 nM and 15.8 nM, the Ki [12] was 13.1 nM and 12.5 nM and the Ki [13] was 3.6 nM and 2.1 nM.
For `CCc1cc(Cl)c(OC)c(C(=O)NC[C@@H]2CCCN2CC)c1O` [Compound 2, Eticlopride], the Ki (D3R) is given as 0.24 nM.
